Experimental findings from ChEMBL document CHEMBL4312037, “Fragment hopping-based discovery of novel sulfinylacetamide-diarylpyrimidines (DAPYs) as HIV-1 nonnucleoside reverse transcriptase inhibitors” (Eur J Med Chem, 2020) are described below.

In data set [1] the test system is Human immunodeficiency virus 1. The data set can be described thus: Antiviral activity against HIV1 3B infected in human MT4 cells assessed as virus-induced cytopathic effect incubated for 5 days by MTT assay. Format: functional, organism-based. To be noted: Human immunodeficiency virus 1, 3B, MT4, 120 h.
Data set [2] concerns Human immunodeficiency virus 1. Nature of the data set: Antiviral activity against HIV1 3B harbouring NNRTI K103N mutant infected in human MT4 cells assessed as virus-induced cytopathic effect incubated for 5 days by MTT assay. Format: functional, organism-based. To be noted: Human immunodeficiency virus 1, 3B, MT4, 120 h. For orientation: Damage to the host cells serves as the signal in cytopathic effect assays.

Data set [3] can be described thus: in vitro. To be noted: human, MT4 cells; MT4 cells infected with HIV1 3B K103N mutant.
Description: Selectivity index, ratio of CC50 for cytotoxicity against human MT4 cells to EC50 for antiviral activity against HIV1 3B harbouring NNRTI K103N mutant infected in human MT4 cells
Data set [4] in a line: in vitro. To be noted: human, MT4 cells; MT4 cells infected with HIV1 3B.
Description: Selectivity index, ratio of CC50 for cytotoxicity against human MT4 cells to EC50 for antiviral activity against HIV1 3B infected in human MT4 cells
Data set [5] can be described thus: Cytotoxicity against human MT4 cells assessed as reduction in cell viability incubated for 5 days by MTT assay. Format: cell-based. (Formazan colour is commonly taken as a measure of viable cells.)

One may read the EC50 as the concentration at which the effect is half-maximal. What is called CC50 is the concentration giving 50% cytotoxicity.

Regarding `COc1cc2nc(SCC(=O)Nc3ccc(C(F)(F)F)cc3)nc(Nc3c(Cl)cc(/C=C/C#N)cc3Cl)c2cc1OC`, the results for the EC50 in data set [1] and in data set [2] were 20 µM and 3.91 µM, respectively. The selectivity ratio is over 50 in “in vitro [3]” and over 10 in “in vitro [4]”. In data set [5], the CC50 at 120 h was over 197 µM.
The matching figures for `COc1ccc(NC(=O)CSc2nc(Nc3c(C)cc(/C=C/C#N)cc3C)c3cc(OC)c(OC)cc3n2)cc1`: 2.75 µM, 0.745 µM, over 302, over 82 and over 225 µM.
The matching figures for `COc1cccc(NC(=O)C[S+]([O-])c2nc(Nc3c(Cl)cc(/C=C/C#N)cc3Cl)c3cc(OC)c(OC)cc3n2)c1` (stereo unspecified): 2.37 µM, 0.465 µM, at least 439, at least 70 and at least 167 µM.
`COc1cc2nc([S+]([O-])CC(=O)Nc3ccc(C#N)cc3)nc(Nc3c(Cl)cc(/C=C/C#N)cc3Cl)c2cc1OC` (stereo unspecified): the EC50 came out at 0.0582 µM in data set [1] and 0.0426 µM in data set [2]. Moreover, the selectivity ratio in the data set “in vitro [3]” was at least 4420; in the data set “in vitro [4]” it was at least 3240. Besides, in data set [5], the CC50 at 120 h is at least 188 µM.
The matching figures for `COc1cc2nc([S+]([O-])CC(=O)Nc3ccccc3C#N)nc(Nc3c(Cl)cc(/C=C/C#N)cc3Cl)c2cc1OC` (stereo unspecified): 30.6 µM, 11.7 µM, over 18, over 7 and over 206 µM.
Consider `COc1cc2nc(SCC(=O)Nc3cc([N+](=O)[O-])ccc3F)nc(Nc3c(Cl)cc(/C=C/C#N)cc3Cl)c2cc1OC`, for which the EC50 in data set [1] is over 199 µM. For the same compound, in the data set “in vitro [4]”, the selectivity ratio was over 1. Further, the CC50 at 120 h in data set [5] is over 199 µM.
For the compound `COc1cc2nc([S+]([O-])CC(=O)Nc3cc([N+](=O)[O-])ccc3F)nc(Nc3c(Cl)cc(/C=C/C#N)cc3Cl)c2cc1OC` (stereo unspecified), the EC50 is 8.08 µM in data set [1] and 6 µM in data set [2]. Moreover, the selectivity ratio is over 32 in “in vitro [3]” and over 24 in the data set “in vitro [4]”. Besides, in data set [5], the CC50 at 120 h was over 194 µM.
The matching figures for `COc1cc2nc([S+]([O-])CC(=O)Nc3cccc(Cl)c3)nc(Nc3c(Cl)cc(/C=C/C#N)cc3Cl)c2cc1OC` (stereo unspecified): 0.313 µM, 0.0687 µM, 1000, 220 and 68.9 µM.
Consider `COc1cc2nc(SCC(=O)Nc3ccc(C)cc3)nc(Nc3c(Cl)cc(/C=C/C#N)cc3Cl)c2cc1OC`, for which the EC50 in data set [1] was over 2.53 µM. In the data set “in vitro [4]”, the selectivity ratio is under 1. For the same compound, in data set [5], the CC50 at 120 h amounted to 2.54 µM.
On to `COc1cc2nc([S+]([O-])CC(=O)Nc3cccc(C#N)c3)nc(Nc3c(Cl)cc(/C=C/C#N)cc3Cl)c2cc1OC` (stereo unspecified), for which the EC50 in data set [1] was determined as 0.0996 µM; in data set [2], 0.0383 µM. Further, the selectivity ratio in “in vitro [3]” is at least 1840; in “in vitro [4]”, at least 706. In addition, the CC50 at 120 h in data set [5] is at least 70.3 µM.
The corresponding values for `COc1cc2nc([S+]([O-])CC(=O)Nc3ccc(F)cc3)nc(Nc3c(C)cc(/C=C/C#N)cc3C)c2cc1OC` (stereo unspecified) are 0.131 µM, 0.0329 µM, 833, 209 and 27.4 µM.
With `COc1cc2nc(SCC(=O)Nc3cccc(Cl)c3)nc(Nc3c(Cl)cc(/C=C/C#N)cc3Cl)c2cc1OC`, in data set [1], the EC50 was over 208 µM. Moreover, in the data set “in vitro [4]”, the selectivity ratio was over 1. In addition, in data set [5], the CC50 at 120 h is over 208 µM.
`COc1cc2nc([S+]([O-])CC(=O)Nc3cccc(C(F)(F)F)c3)nc(Nc3c(Cl)cc(/C=C/C#N)cc3Cl)c2cc1OC` (stereo unspecified): the EC50 in data set [1] stood at 1.27 µM; in data set [2] it was 0.626 µM. For the same compound, the results for the selectivity ratio in “in vitro [3]” and in “in vitro [4]” were 35 and 17, respectively. Besides, the CC50 at 120 h in data set [5] amounted to 21.8 µM.
For the compound `COc1cc2nc(Nc3ccc(C#N)cc3)nc(Nc3c(F)cc(/C=C/C#N)cc3F)c2cc1OC`, the EC50 in data set [1] was 0.0411 µM; in data set [2], 0.0181 µM. The selectivity ratio came out at 355 in “in vitro [3]” and 156 in “in vitro [4]”. The CC50 at 120 h in data set [5] came to 6.4 µM.
In the case of `COc1cc2nc([S+]([O-])CC(=O)Nc3ccc(C)cc3)nc(Nc3c(Cl)cc(/C=C/C#N)cc3Cl)c2cc1OC` (stereo unspecified), the EC50 in data set [1] came out at 0.327 µM; in data set [2] it was 0.049 µM. The selectivity ratio was determined as 657 in “in vitro [3]” and 98 in the data set “in vitro [4]”. For the same compound, the CC50 at 120 h in data set [5] stood at 32.2 µM.
In the case of `COc1cc2nc([S+]([O-])CC(=O)Nc3cccc([N+](=O)[O-])c3)nc(Nc3c(Cl)cc(/C=C/C#N)cc3Cl)c2cc1OC` (stereo unspecified), the figures for the EC50 in data set [1] and in data set [2] were 0.423 µM and 0.27 µM, respectively. Also, the values for the selectivity ratio in “in vitro [3]” and in the data set “in vitro [4]” were at least 308 and at least 197, respectively. The CC50 at 120 h in data set [5] was at least 83.2 µM.
Take `COc1cc2nc(Nc3ccc(C#N)cc3)nc(Nc3c(C)cc(/C=C/C#N)cc3F)c2cc1OC`: the EC50 in data set [1] was 0.0122 µM; in data set [2] it was 0.011 µM. Besides, the selectivity ratio in “in vitro [3]” was over 4720; in the data set “in vitro [4]” it was over 4250. Further, the CC50 at 120 h in data set [5] is over 52 µM.
With `COc1cc2nc([S+]([O-])CC(=O)Nc3c(C)cc(C)cc3C)nc(Nc3c(Cl)cc(/C=C/C#N)cc3Cl)c2cc1OC` (stereo unspecified), in data set [1], the EC50 was determined as 7.31 µM. Further, in the data set “in vitro [4]”, the selectivity ratio stood at 1. Further, the CC50 at 120 h in data set [5] amounted to 8.87 µM.
For the compound `O=C1Nc2ccc(Cl)cc2[C@@](C#CC2CC2)(C(F)(F)F)O1` [EFAVIRENZ], the values for the EC50 in data set [1] and in data set [2] were 0.0038 µM and 0.124 µM, respectively. Further, the CC50 at 120 h in data set [5] is over 6.34 µM.
Take `COc1cc2nc(SCC(=O)Nc3ccc(S(N)(=O)=O)cc3)nc(Nc3c(Cl)cc(/C=C/C#N)cc3Cl)c2cc1OC`: the EC50 in data set [1] is over 116 µM. The selectivity ratio in “in vitro [4]” was under 1. Also, in data set [5], the CC50 at 120 h came out at 116 µM.
In the case of `Cc1cc(C#N)cc(C)c1Oc1nc(Nc2ccc(C#N)cc2)nc(N)c1Br` [ETRAVIRINE], the EC50 in data set [1] is 0.0042 µM; in data set [2], 0.0037 µM. The CC50 at 120 h in data set [5] was over 4.59 µM.
As to `Cc1ccnc2c1NC(=O)c1cccnc1N2C1CC1` [NEVIRAPINE], the values for the EC50 in data set [1] and in data set [2] were 0.235 µM and at least 11.2 µM, respectively. Also, the CC50 at 120 h in data set [5] was over 15 µM.
`COc1cc2nc(SCC(=O)Nc3cccc(S(N)(=O)=O)c3)nc(Nc3c(Cl)cc(/C=C/C#N)cc3Cl)c2cc1OC`: in data set [1], the EC50 is over 194 µM. Also, in “in vitro [4]”, the selectivity ratio was over 1. The CC50 at 120 h in data set [5] was over 194 µM.
In the case of `COc1cc2nc([S+]([O-])CC(=O)Nc3ccccc3C(F)(F)F)nc(Nc3c(Cl)cc(/C=C/C#N)cc3Cl)c2cc1OC` (stereo unspecified), the results for the EC50 in data set [1] and in data set [2] were 67.1 µM and over 192 µM, respectively. Moreover, the selectivity ratio in “in vitro [4]” was over 3. Also, in data set [5], the CC50 at 120 h is over 192 µM.
With `COc1cc2nc([S+]([O-])CC(=O)Nc3cccc(S(N)(=O)=O)c3)nc(Nc3c(Cl)cc(/C=C/C#N)cc3Cl)c2cc1OC` (stereo unspecified), the EC50 in data set [1] was over 67.8 µM. Also, the selectivity ratio in “in vitro [4]” was under 1. In addition, the CC50 at 120 h in data set [5] came out at 67.8 µM.
On to `COc1cc2nc([S+]([O-])CC(=O)Nc3ccccc3[N+](=O)[O-])nc(Nc3c(Cl)cc(/C=C/C#N)cc3Cl)c2cc1OC` (stereo unspecified), for which the EC50 in data set [1] was over 199 µM. Further, the CC50 at 120 h in data set [5] is over 199 µM.
